We go through five substances from PMC12501004.

The nature of the series: intramolecular Trp triplet quenching by Cys (photoinduced electron transfer, contact formation) in full-length measles virus NTAIL single C-W variants; nanosecond transient absorption (289 nm pump, 458 nm probe); tau_CW from 1/tau_CW = 1/tau_obs - 1/tau_0. The following applies: aqueous buffer: 15 mM Tris, 150 mM NaCl, 1 mM TCEP, pH 7.6, N2O-saturated; 0.1 mM; 20.0 °C; scale: us.
In the case of “H-GSTTEDKISRAVGPRQAQVSFLHGDQCENELPRLGGKEDRRVKQSRGEARESWRETGPSRASDARAAHLPTGTPLDIDTASESSQDPQDSRRSADALLRLQAMAGISEEQGSDTDTPIVYNDRNLLD-OH”, the ring closure, rate was 3.1.
Substance “H-GSTTEDKICRAVGPRQAQVSFLHGDQSENELPRLGGKEDRRVKQSRGEARESWRETGPSRASDARAAHLPTGTPLDIDTASESSQDPQDSRRSADALLRLQAMAGISEEQGSDTDTPIVYNDRNLLD-OH” gave a ring closure, rate of 6.63.
The figure for “H-GSTTEDKISRAVGPRQAQVSFLHGDQSENELPRLGGKEDRRVKQSRGEARESYRETGPSRASDARAAHLPTGTPLDIDTASESSQDPQDCRRSADALLRLQAMAGISEEQGSDTDTPIVWNDRNLLD-OH” is 2.76.
Then “H-GSTTEDKISRAVGPRQAQVSFLHGDQSENELPRLGGKEDRRVKQSRGEARESWRETGPSRASDARAAHLPTGTPLDIDTASESCQDPQDSRRSADALLRLQAMAGISEEQGSDTDTPIVYNDRNLLD-OH”, with 3.21.
As to “H-GSTTEDKISRAVGPRQAQVSFLHGDQSENELPRLGGKEDRRVKQSRGEARESYRETGPSRASDARAAHLPTGTPLDIDTASESCQDPQDSRRSADALLRLQAMAGISEEQGSDTDTPIVWNDRNLLD-OH”, the ring closure, rate came out at 7.6.
